Measured values from patent publication US10294202B2, “Pyrrolidinones as herbicides” (FMC Corporation, priority 2013, dated 2019).

Legend:
barnyardgrass [1] = test: Test A pre-/postemergence herbicide test; type: in vivo, Echinochloa crus-galli
How it was run: (§1)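 Both application timings used compounds in a non-phytotoxic solvent plus surfactant. Pre-emergence: soil sprayed directly after seeding into loam/sand. Post-emergence: foliage of 2–10 cm seedlings (1–2 leaves) sprayed. Injury rated ~10 days later, 0–100.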

crabgrass, large = test: Test A pre-/postemergence herbicide test; type: in vivo, Digitaria sanguinalis
How it was run: as §1

giant foxtail = test: Test A pre-/postemergence herbicide test; type: in vivo, Setaria faberii
How it was run: as §1

morningglory = test: Test A pre-/postemergence herbicide test; type: in vivo, Ipomoea spp.
How it was run: as §1

pigweed = test: Test A pre-/postemergence herbicide test; type: in vivo, Amaranthus retroflexus
How it was run: as §1

velvetleaf = test: Test A pre-/postemergence herbicide test; type: in vivo, Abutilon theophrasti
How it was run: as §1

wheat = test: Test A pre-/postemergence herbicide test; type: in vivo, Triticum aestivum
How it was run: as §1

corn = test: Test A pre-/postemergence herbicide test; type: in vivo, Zea mays
How it was run: as §1

rice = test: Test B flooded paddy test; type: in vivo, Oryza sativa; conditions: Flood, scale of 0 to 100 where 0 is no effect and 100 is complete control
How it was run: (§2)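 Plants were grown to the 2-leaf stage, then pots were flooded to 3 cm above the soil and compound was applied directly into the paddy water, with that depth held throughout. After 13 to 15 days in a greenhouse, injury was rated visually against untreated controls on a 0 to 100 scale (100 = complete control).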

sedge, umbrella = test: Test B flooded paddy test; type: in vivo, Cyperus difformis; conditions: Flood, scale of 0 to 100 where 0 is no effect and 100 is complete control
How it was run: as §2

ducksalad = test: Test B flooded paddy test; type: in vivo, Heteranthera limosa; conditions: Flood, scale of 0 to 100 where 0 is no effect and 100 is complete control
How it was run: as §2

barnyardgrass [2] = test: Test B flooded paddy test; type: in vivo, Echinochloa crus-galli; conditions: Flood, scale of 0 to 100 where 0 is no effect and 100 is complete control
How it was run: as §2

[3] = Postemergence, 125 g ai/ha, 0 to 100 scale, 0 is no effect, 100 is complete control
[4] = Postemergence, 500 g ai/ha, 0 to 100 scale (0 no effect, 100 complete control)
[5] = Preemergence, 125 g ai/ha, 0 to 100 scale where 0 is no effect and 100 is complete control
[6] = preemergence, 500 g ai/ha, 0 to 100 scale, 0 is no effect and 100 is complete control

Compound | Plant response rating, Barnyardgrass (barnyardgrass [1]; [3]) | Plant response rating, Barnyardgrass (barnyardgrass [1]; [4]) | Plant response rating, Barnyardgrass (barnyardgrass [1]; [5]) | Plant response rating, Barnyardgrass (barnyardgrass [1]; [6]) | Plant response rating, Crabgrass, Large (crabgrass, large; [3]) | Plant response rating, Crabgrass, Large (crabgrass, large; [4]) | Plant response rating, Crabgrass, Large (crabgrass, large; [5]) | Plant response rating, Crabgrass, Large (crabgrass, large; [6]) | Plant response rating, Foxtail, Giant (giant foxtail; [3]) | Plant response rating, Foxtail, Giant (giant foxtail; [4]) | Plant response rating, Foxtail, Giant (giant foxtail; [5]) | Plant response rating, Foxtail, Giant (giant foxtail; [6]) | Plant response rating, Morningglory (morningglory; [3]) | Plant response rating, Morningglory (morningglory; [4]) | Plant response rating, Morningglory (morningglory; [5]) | Plant response rating, Morningglory (morningglory; [6]) | Plant response rating, Pigweed (pigweed; [3]) | Plant response rating, Pigweed (pigweed; [4]) | Plant response rating, Pigweed (pigweed; [5]) | Plant response rating, Pigweed (pigweed; [6]) | other results
O=C1NCC(c2ccc(F)c(F)c2)C1C(=O)Nc1cccc(C(F)(F)F)n1 (racemic) [Compound 245] | 30 | 50 | 20 | 20 | 20 | 30 | 60 | 80 | 20 | 30 | 60 | 70 | 0 | 0 | 0 | 0 | 40 | 40 | 0 | 30 | Plant response rating, Velvetleaf (velvetleaf; [3]): 20; Plant response rating, Velvetleaf (velvetleaf; [4]): 40; Plant response rating, Velvetleaf (velvetleaf; [5]): 0; Plant response rating, Velvetleaf (velvetleaf; [6]): 0; Plant response rating, Wheat (wheat; [3]): 0; Plant response rating, Wheat (wheat; [4]): 40; Plant response rating, Wheat (wheat; [5]): 0; Plant response rating, Wheat (wheat; [6]): 0; Plant response rating, Corn (corn; [3]): 0; Plant response rating, Corn (corn; [4]): 0; Plant response rating, Corn (corn; [5]): 0; Plant response rating, Corn (corn; [6]): 0; Plant response rating, Rice (rice; 1000 g ai/ha): 0; Plant response rating, Sedge, Umbrella (sedge, umbrella; 1000 g ai/ha): 0; Plant response rating, Ducksalad (ducksalad; 1000 g ai/ha): 90; Plant response rating, Barnyardgrass (barnyardgrass [2]; 1000 g ai/ha): 20
O=C1NCC(c2ccc(OC(F)(F)F)cc2)C1C(=O)Nc1ccccc1F (racemic) [Compound 256] | 0 | 20 | 0 | 20 | 70 | 90 | 80 | 90 | 40 | 70 | 20 | 60 | 0 | 0 | 0 | 0 | 0 | 0 | 0 | 0 | Plant response rating, Velvetleaf (velvetleaf; [3]): 0; Plant response rating, Velvetleaf (velvetleaf; [4]): 0; Plant response rating, Velvetleaf (velvetleaf; [5]): 0; Plant response rating, Velvetleaf (velvetleaf; [6]): 0; Plant response rating, Wheat (wheat; [3]): 0; Plant response rating, Wheat (wheat; [4]): 20; Plant response rating, Wheat (wheat; [5]): 0; Plant response rating, Wheat (wheat; [6]): 0; Plant response rating, Corn (corn; [3]): 0; Plant response rating, Corn (corn; [4]): 0; Plant response rating, Corn (corn; [5]): 0; Plant response rating, Corn (corn; [6]): 0; Plant response rating, Rice (rice; 250 g ai/ha): 0; Plant response rating, Sedge, Umbrella (sedge, umbrella; 250 g ai/ha): 50; Plant response rating, Ducksalad (ducksalad; 250 g ai/ha): 60; Plant response rating, Barnyardgrass (barnyardgrass [2]; 250 g ai/ha): 0
O=C1NCC(c2ccc(OC(F)(F)F)cc2)C1C(=O)Nc1ccccc1C(F)(F)F (racemic) [Compound 258] | 40 | 80 | 20 | 90 | 80 | 90 | 90 | 90 | 60 | 80 | 50 | 90 | 0 | 0 | 0 | 0 | 0 | 0 | 0 | 0 | Plant response rating, Velvetleaf (velvetleaf; [3]): 0; Plant response rating, Velvetleaf (velvetleaf; [4]): 0; Plant response rating, Velvetleaf (velvetleaf; [5]): 0; Plant response rating, Velvetleaf (velvetleaf; [6]): 0; Plant response rating, Wheat (wheat; [3]): 0; Plant response rating, Wheat (wheat; [4]): 30; Plant response rating, Wheat (wheat; [5]): 0; Plant response rating, Wheat (wheat; [6]): 0; Plant response rating, Corn (corn; [3]): 0; Plant response rating, Corn (corn; [4]): 20; Plant response rating, Corn (corn; [5]): 0; Plant response rating, Corn (corn; [6]): 0; Plant response rating, Rice (rice; 250 g ai/ha): 0; Plant response rating, Sedge, Umbrella (sedge, umbrella; 250 g ai/ha): 40; Plant response rating, Ducksalad (ducksalad; 250 g ai/ha): 60; Plant response rating, Barnyardgrass (barnyardgrass [2]; 250 g ai/ha): 0
O=C1NCC(c2ccc(C(F)(F)F)cc2F)C1C(=O)Nc1cccc(F)c1F (racemic) [Compound 260] | 70 | 80 | 70 | 80 | 90 | 90 | 90 | 90 | 80 | 90 | 80 | 90 | 0 | 50 | 20 | 50 | 60 | 70 | 60 | 80 | Plant response rating, Velvetleaf (velvetleaf; [6]): 40; Plant response rating, Wheat (wheat; [3]): 0; Plant response rating, Wheat (wheat; [4]): 0; Plant response rating, Wheat (wheat; [5]): 0; Plant response rating, Wheat (wheat; [6]): 0; Plant response rating, Corn (corn; [3]): 0; Plant response rating, Corn (corn; [4]): 0; Plant response rating, Corn (corn; [5]): 0; Plant response rating, Corn (corn; [6]): 10; Plant response rating, Rice (rice; 1000 g ai/ha): 0; Plant response rating, Sedge, Umbrella (sedge, umbrella; 1000 g ai/ha): 0; Plant response rating, Ducksalad (ducksalad; 1000 g ai/ha): 95; Plant response rating, Barnyardgrass (barnyardgrass [2]; 1000 g ai/ha): 0
